The source made the active and inactive calls. The calls are words filed in the database; no cut-off is given here.
Key:
[1] = Inhibition of TNFalpha-stimulated NFkappaB (unknown origin) expressed in mouse NIH-3T3-KBFLuc cells at 50 uM after 6 hrs by luciferase reporter gene assay relative to control; format: cell-based; conditions: Homo sapiens
[2] = biological target: T1, Nuclear factor erythroid 2-related factor 2 (Homo sapiens) (UniProt Q16236); test: Activation of Nrf2 in human HaCaT-ARE-Luc cells at 50 uM after 6 hrs by luciferase reporter gene assay relative to control; format: cell-based
T1 sequence (whole entry): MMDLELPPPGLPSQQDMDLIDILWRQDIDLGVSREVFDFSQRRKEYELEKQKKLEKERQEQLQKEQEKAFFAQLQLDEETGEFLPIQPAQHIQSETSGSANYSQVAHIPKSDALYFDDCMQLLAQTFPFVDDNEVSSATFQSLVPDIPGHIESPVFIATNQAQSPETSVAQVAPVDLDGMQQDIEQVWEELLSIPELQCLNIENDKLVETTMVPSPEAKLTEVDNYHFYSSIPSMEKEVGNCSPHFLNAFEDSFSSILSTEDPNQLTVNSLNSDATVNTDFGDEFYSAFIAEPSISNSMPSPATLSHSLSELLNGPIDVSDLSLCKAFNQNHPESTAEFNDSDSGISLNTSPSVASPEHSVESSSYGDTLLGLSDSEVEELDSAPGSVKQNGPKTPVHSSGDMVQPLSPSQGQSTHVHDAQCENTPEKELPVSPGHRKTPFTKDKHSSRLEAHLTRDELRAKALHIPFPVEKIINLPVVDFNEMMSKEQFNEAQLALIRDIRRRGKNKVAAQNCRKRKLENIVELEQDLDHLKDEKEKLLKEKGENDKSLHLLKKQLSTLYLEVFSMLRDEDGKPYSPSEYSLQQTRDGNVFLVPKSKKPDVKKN

[3] = biological target: Signal transducer and activator of transcription 3 (Homo sapiens) (UniProt P40763); test: Inhibition of IFNgamma-stimulated STAT3 (unknown origin) activation expressed in human HeLa cells at 50 uM after 6 hrs by luciferase reporter gene assay relative to control; format: cell-based
[4] = system: U-251; test: Antiproliferative activity against human U251 cells at 50 uM after 48 hrs by sulforhodamine B assay relative to control; format: functional; conditions: for inhibition at 50 µM: U-251, 48 h
[5] = system: PC-3; test: Antiproliferative activity against human PC3 cells at 50 uM after 48 hrs by sulforhodamine B assay relative to control; format: functional; conditions: PC-3, 48 h
[6] = system: K562; test: Antiproliferative activity against human K562 cells at 50 uM after 48 hrs by sulforhodamine B assay relative to control; format: functional; conditions: for inhibition at 50 µM: K562, 48 h
[7] = system: HCT-15; test: Antiproliferative activity against human HCT15 cells at 50 uM after 48 hrs by sulforhodamine B assay relative to control; format: functional; conditions: for inhibition at 50 µM: HCT-15, 48 h
[8] = system: MCF7; test: Antiproliferative activity against human MCF7 cells at 50 uM after 48 hrs by sulforhodamine B assay relative to control; format: functional; conditions: MCF7, 48 h
[9] = system: SK-LU-1; test: Antiproliferative activity against human SK-LU-1 cells at 50 uM after 48 hrs by sulforhodamine B assay relative to control; format: functional; conditions: for inhibition at 50 µM: SK-LU-1, 48 h
[10] = system: PC-3; test: Antiproliferative activity against human PC3 cells after 48 hrs by sulforhodamine B assay; format: functional, cell-based; conditions: PC-3, 48 h
[11] = system: HCT-15; test: Antiproliferative activity against human HCT15 cells after 48 hrs by sulforhodamine B assay; format: functional, cell-based; conditions: HCT-15, 48 h
[12] = system: SK-LU-1; test: Antiproliferative activity against human SK-LU-1 cells after 48 hrs by sulforhodamine B assay; format: functional, cell-based; conditions: SK-LU-1, 48 h
[13] = system: U-251; test: Antiproliferative activity against human U251 cells after 48 hrs by sulforhodamine B assay; format: functional, cell-based; conditions: U-251, 48 h
[14] = system: K562; test: Antiproliferative activity against human K562 cells after 48 hrs by sulforhodamine B assay; format: functional, cell-based; conditions: K562, 48 h
[15] = system: MCF7; test: Antiproliferative activity against human MCF7 cells after 48 hrs by sulforhodamine B assay; format: functional, cell-based; conditions: MCF7, 48 h

Sequence of Signal transducer and activator of transcription 3 (Homo sapiens) (P40763 whole entry): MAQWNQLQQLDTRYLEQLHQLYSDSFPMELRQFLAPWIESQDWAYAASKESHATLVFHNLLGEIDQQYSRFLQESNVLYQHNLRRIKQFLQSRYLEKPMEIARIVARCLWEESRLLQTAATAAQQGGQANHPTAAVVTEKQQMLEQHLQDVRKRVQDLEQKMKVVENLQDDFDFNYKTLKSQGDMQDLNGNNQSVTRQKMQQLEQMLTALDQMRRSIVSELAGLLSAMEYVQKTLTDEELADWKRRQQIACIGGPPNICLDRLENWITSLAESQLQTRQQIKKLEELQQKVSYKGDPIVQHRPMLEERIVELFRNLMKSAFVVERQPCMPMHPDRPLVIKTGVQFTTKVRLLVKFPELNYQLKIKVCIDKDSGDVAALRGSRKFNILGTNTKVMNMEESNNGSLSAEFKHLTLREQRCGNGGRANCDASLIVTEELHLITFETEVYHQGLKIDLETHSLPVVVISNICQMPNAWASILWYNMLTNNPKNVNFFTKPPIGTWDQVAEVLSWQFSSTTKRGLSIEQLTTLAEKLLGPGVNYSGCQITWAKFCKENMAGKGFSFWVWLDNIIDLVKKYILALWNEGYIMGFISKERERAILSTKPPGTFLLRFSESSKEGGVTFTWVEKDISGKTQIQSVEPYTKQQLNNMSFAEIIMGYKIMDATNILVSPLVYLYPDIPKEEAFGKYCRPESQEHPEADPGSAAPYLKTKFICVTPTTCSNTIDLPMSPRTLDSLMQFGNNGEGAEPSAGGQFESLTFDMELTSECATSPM

SMILES	fold change (FC) [2]	inhibition [3] [%]	IC50 [10] [µM]	IC50 [11] [µM]	IC50 [12] [µM]	IC50 [13] [µM]	IC50 [14] [µM]	IC50 [15] [µM]	inhibition [1] [%]	inhibition at 50 µM [4] [%]	inhibition at 50 µM [5] [%]	inhibition [6]	inhibition at 50 µM [7] [%]	inhibition at 50 µM [8] [%]	inhibition at 50 µM [9] [%]	inhibition at 50 µM [6] [%]	inhibition [4]	inhibition [7]	inhibition [9]
CC1=CC[C@H](C(C)C)c2cc(C(=O)O)ccc21	1.8	2.9							7.3										
Cc1cc2c(C(C)C)ccc(C)c2cc1OC(=O)c1cccc(Cl)c1	1.7	1.8							25.6	0.8	4.2	inactive		11.4	11.6			inactive	
Cc1cc2c(C(C)C)ccc(C)c2cc1OC(=O)c1ccccc1	1.9	0.5							34.5	41.5	21.2		72	51	63	44.3			
Cc1cc2c(C(C)C)ccc(C)c2cc1OC(=O)c1cccc(C(F)(F)F)c1	1.9	2.7							4.8		26.7	inactive		41.5	17.3		inactive	inactive	
CC1=CC[C@H](C(C)C)c2cc(C)c(OC(=O)c3cccc(C)c3)cc21	1.7	2.3							44.2	16.8	38.6	inactive	5.3	54.9					inactive
CC(C)[C@H]1CC[C@@](C)(O)c2ccc(C(=O)O)cc21	1.7	3.8							6.7										
CC1=CC[C@H](C(C)C)c2cc(C)c(OC(=O)c3ccccc3)cc21	6.6	2.4							47.2	25.8	22.5	inactive	49.5	60.7	37				
CC1=C2CCC(C(=O)O)=C[C@@H]2[C@@H](C(C)C)CC1	1.4	3.8							5.9										
Cc1cc2c(C(C)C)ccc(C=O)c2cc1O	1.6	3.5							40.1										
COc1cccc(C(=O)Oc2cc3c(cc2C)[C@@H](C(C)C)CC=C3C)c1	1.6	3.3							41.2		16.3	inactive		11.9	24.2		inactive	inactive	
CC1=CC[C@H](C(C)C)c2cc(C)c(OC(=O)c3cccc(C(F)(F)F)c3)cc21	1.9	1.7							4.4	29.3	25.4		15	86	18.3	45.5			
CC1=CC[C@H](C(C)C)c2cc(C)c(OC(=O)c3ccc(Cl)cc3)cc21	1.3	2.7							36.1	25.6	34.1		47.4	79.7	17.4	58.9			
Cc1cc2c(C(C)C)ccc(C)c2cc1OC(=O)c1ccc(Cl)cc1	1.7	1.3	44	34	23.9	35.5	19.1	32.1	15.5	92.8	81.1		82.2	76	100	95.4			

The next lines start with results.

fold change (FC) [2]	inhibition [3] [%]	IC50 [10] [µM]	IC50 [11] [µM]	IC50 [12] [µM]	IC50 [13] [µM]	IC50 [14] [µM]	IC50 [15] [µM]	SMILES	inhibition [1] [%]	inhibition at 50 µM [4] [%]	inhibition at 50 µM [5] [%]	inhibition [6]	inhibition at 50 µM [7] [%]	inhibition at 50 µM [8] [%]	inhibition at 50 µM [9] [%]	inhibition at 50 µM [6] [%]	inhibition [4]	inhibition [7]	inhibition [9]
1.3	2.2							CC1=C[C@](O)(C(C)C)C(=O)c2cc(C)c(O)cc21	28.8										
1.7	2.4							Cc1ccc2c(c1)C(=O)C(C(C)C)=C[C@@]2(C)O	11.1										
1.4	1.5							CC1=CC[C@H](C(C)C)c2cc(C)c(OC(=O)c3cccc(Cl)c3)cc21	22.5	0.9	23.4	inactive	5.3	40.4	30.6				
8.5	1.6	42.5	56.3	42.9				CC1=CC[C@H](C(C)C)c2cc(C)c(OC(=O)c3ccc([N+](=O)[O-])cc3)cc21	7.2	16.8	36.7		67.8	72.9	47.5	89			
1.3	2.5							COc1ccc(C(=O)Oc2cc3c(C)ccc(C(C)C)c3cc2C)cc1	26.9	42.6	10.4		84	93.4	32.8	88.6			
1.5	0.8							COc1cccc(C(=O)Oc2cc3c(C)ccc(C(C)C)c3cc2C)c1	2.8		12.5		35.2	31.8	30.6	14.2	inactive		
1.5	3.2							CC1=CC[C@H](C(C)C)c2cc(C)c(OC(=O)c3cccc([N+](=O)[O-])c3)cc21	3.5	44	36.9		45.9	29.3	60.4	15.9			
1.8	2	47.1						Cc1cccc(C(=O)Oc2cc3c(C)ccc(C(C)C)c3cc2C)c1	4.8	5.2	52.4		27.6	50.4		17.1			inactive
1.7	0.9	34						Cc1cc2c(C(C)C)ccc(C)c2cc1OC(=O)c1ccc(C(F)(F)F)cc1	5.2	16.5	100		55.6	16.8	28.7	45.1			
1.9	0.9							COc1c(C(C)C)cc(C)c2ccc(C)cc12	26.5										
1.6	2.5							CC1=CC[C@H](C(C)C)c2cc(C)c(OC(=O)c3ccc(C(F)(F)F)cc3)cc21	25.4	14.7	12.3		6.4	40.4		9			inactive
1.9	3.6							CC1=CC[C@H](C(C)C)[C@H]2C=C(C(=O)O)CC=C12	12.3										
1.9	1.8	32.2						COc1ccc(C(=O)Oc2cc3c(cc2C)[C@@H](C(C)C)CC=C3C)cc1	49.2	37	60.6		30.8	80.1	18.6	46.5			
